The values that follow are results of earlier work, collected in patent US11857520B2, “Therapeutic composition of intranasal lidocaine” (Nortic Holdings Inc., priority 2018, dated 2024).

Tested on in one data set: not given
The settings on record: generally recognized.
`CCN(CC)CCOC(=O)c1ccc(N)cc1Cl` [chloroprocaine]: the Maximum dose is listed as 12 mg/kg.
Turning to `CCCCNc1ccc(C(=O)OCCN(C)C)cc1` [tetracaine], the Maximum dose is on record as 3 mg/kg and the duration of action was 1.5 to 6 h.
For `CCCCN1CCCCC1C(=O)Nc1c(C)cccc1C` (centres unmarked) [bupivacaine], the Maximum dose is given as 3 mg/kg.
In the case of `CCCNC(C)C(=O)Nc1ccccc1C` (centres unmarked) [prilocaine], the Maximum dose was 8 mg/kg.
In the case of `COC(=O)[C@H]1[C@@H](OC(=O)c2ccccc2)C[C@@H]2CC[C@H]1N2C` [cocaine], the Maximum dose is given as 3 mg/kg.
`CCN(CC)CC(=O)Nc1c(C)cccc1C` [lidocaine]: the Maximum dose is reported as 4.5 mg/kg and the duration of action is 0.75 to 1.5 h.
Consider `Cc1cccc(C)c1NC(=O)C1CCCCN1C` (centres unmarked) [mepivacaine], for which the Maximum dose is on record as 4.5 mg/kg and the duration of action is 1 to 2 h.
As to `CCN(CC)CCOC(=O)c1ccc(N)cc1` [procaine], the Maximum dose is recorded as 12 mg/kg.
With `CCCN1CCCC[C@H]1C(=O)Nc1c(C)cccc1C` [ropivacaine], the Maximum dose is 3 mg/kg.

The subject of a further data set is skin. The settings on record: HSDB database.
Turning to `OCc1ccccc1` [benzyl alcohol], the “level irritating to the skin” value is not below 3%.

The subject of a further data set is human retinal pigment epithelial cell. As to conditions: 0.225 mg/ml in triamcinolone acetonide (TA) following intravitreal injection, at 2 hours.
With `OCc1ccccc1` [benzyl alcohol], the “effect on human retinal pigment epithelial cells” value is “caused ultrastructural damage and impaired human retinal pigment epithelial cell function”.
